The record followed here is US20230399313A1, “BIOLOGICAL ACTIVITIES OF 5-(2-(4-(4-FLUORO-2-METHYL-1H-INDOL-5-YLOXY)-6-METHOXYQUINOLIN-7-YLOXY)ETHYL)-5-AZASPIRO[2.4]-HEPTAN-7-OL CRYSTALLINE, PHOSPHORIC ACID SALT AND ITS ENANTIOMERS” (Advenchen Pharmaceuticals, LLC, priority 2022, published 2023).

In one experiment the test system is 95-D. Description: In vitro MTT (proliferation) assay. As to conditions: Lung. Type of experiment: cell-based.
The next experiment concerns the target Aurora-B (Homo sapiens, UniProt Q96GD4). Description: Kinase inhibition. Type of experiment: biochemical. An excerpt:
(§1) In vitro tyrosine kinase inhibition activities can be measured via commercial resources. Some of these tests can also be contracted with Eurofin or Reaction Biology for screening.
(§2) For the kinase inhibition tests, receptor tyrosine kinases are selected from FGFR1(h), FGFR2(h), FGFR3(h), Flt1(h) (VEGFr1), Flt4(h) (VEGFr3), KDR(h) (VEGFr2), Aurora-B, PDGFRα(h) and PDGFRβ(h).

The next experiment concerns the target FGFR1(h) (Homo sapiens, UniProt P11362). Description: Kinase inhibition. Type of experiment: biochemical.
Excerpt: as §1, §2

The next experiment deals with FGFR2(h) (Homo sapiens, UniProt P21802). Description: Kinase inhibition. Type of experiment: biochemical.
Excerpt: as §1, §2

In the next experiment the target is Flt4(h) (VEGFr3) (Homo sapiens, UniProt P35916). Description: Kinase inhibition. Type of experiment: biochemical.
Sequence of Flt4(h) (VEGFr3) (P35916 25-1363): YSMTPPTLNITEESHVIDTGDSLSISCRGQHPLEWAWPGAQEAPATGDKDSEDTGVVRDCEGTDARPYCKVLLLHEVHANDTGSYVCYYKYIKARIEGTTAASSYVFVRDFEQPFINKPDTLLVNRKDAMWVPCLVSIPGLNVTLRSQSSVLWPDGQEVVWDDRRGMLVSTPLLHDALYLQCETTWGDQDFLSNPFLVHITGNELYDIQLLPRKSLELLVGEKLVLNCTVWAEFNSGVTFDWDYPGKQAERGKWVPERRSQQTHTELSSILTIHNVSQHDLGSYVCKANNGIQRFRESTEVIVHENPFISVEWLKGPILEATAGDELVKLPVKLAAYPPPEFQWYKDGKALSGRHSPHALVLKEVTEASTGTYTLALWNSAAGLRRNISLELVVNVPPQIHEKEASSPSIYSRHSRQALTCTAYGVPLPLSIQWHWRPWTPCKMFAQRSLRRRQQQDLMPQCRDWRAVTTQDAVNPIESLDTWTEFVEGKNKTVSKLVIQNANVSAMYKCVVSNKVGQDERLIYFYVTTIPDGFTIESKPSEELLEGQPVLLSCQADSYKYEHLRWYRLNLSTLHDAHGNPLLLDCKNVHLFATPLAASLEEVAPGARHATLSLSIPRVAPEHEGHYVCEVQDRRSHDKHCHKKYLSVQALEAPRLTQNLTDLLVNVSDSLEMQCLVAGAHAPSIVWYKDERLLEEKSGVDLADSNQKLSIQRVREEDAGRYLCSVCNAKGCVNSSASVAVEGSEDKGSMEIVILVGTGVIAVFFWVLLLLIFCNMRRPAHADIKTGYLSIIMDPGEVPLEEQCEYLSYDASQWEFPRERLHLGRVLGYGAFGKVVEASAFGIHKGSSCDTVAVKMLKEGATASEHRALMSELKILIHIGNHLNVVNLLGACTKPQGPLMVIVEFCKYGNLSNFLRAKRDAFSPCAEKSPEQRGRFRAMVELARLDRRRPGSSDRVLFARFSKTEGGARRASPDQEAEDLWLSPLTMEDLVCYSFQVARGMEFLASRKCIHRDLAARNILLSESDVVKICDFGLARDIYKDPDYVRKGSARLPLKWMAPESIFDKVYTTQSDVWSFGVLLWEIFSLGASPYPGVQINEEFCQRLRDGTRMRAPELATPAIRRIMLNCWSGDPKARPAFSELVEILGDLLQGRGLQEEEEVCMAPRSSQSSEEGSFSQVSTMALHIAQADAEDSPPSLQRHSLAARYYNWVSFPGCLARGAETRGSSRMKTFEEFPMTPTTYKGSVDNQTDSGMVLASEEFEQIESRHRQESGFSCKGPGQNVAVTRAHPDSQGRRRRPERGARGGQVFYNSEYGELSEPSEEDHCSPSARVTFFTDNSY
Excerpt: as §1, §2

Another experiment addresses Flt1(h) (VEGFr1) (Homo sapiens, UniProt P17948). Description: Kinase inhibition. Type of experiment: biochemical.
Excerpt: as §1, §2

For a further experiment, the target named is FGFR3(h) (Homo sapiens, UniProt P22607). Description: Kinase inhibition. Type of experiment: biochemical.
Sequence of FGFR3(h) (P22607 23-806): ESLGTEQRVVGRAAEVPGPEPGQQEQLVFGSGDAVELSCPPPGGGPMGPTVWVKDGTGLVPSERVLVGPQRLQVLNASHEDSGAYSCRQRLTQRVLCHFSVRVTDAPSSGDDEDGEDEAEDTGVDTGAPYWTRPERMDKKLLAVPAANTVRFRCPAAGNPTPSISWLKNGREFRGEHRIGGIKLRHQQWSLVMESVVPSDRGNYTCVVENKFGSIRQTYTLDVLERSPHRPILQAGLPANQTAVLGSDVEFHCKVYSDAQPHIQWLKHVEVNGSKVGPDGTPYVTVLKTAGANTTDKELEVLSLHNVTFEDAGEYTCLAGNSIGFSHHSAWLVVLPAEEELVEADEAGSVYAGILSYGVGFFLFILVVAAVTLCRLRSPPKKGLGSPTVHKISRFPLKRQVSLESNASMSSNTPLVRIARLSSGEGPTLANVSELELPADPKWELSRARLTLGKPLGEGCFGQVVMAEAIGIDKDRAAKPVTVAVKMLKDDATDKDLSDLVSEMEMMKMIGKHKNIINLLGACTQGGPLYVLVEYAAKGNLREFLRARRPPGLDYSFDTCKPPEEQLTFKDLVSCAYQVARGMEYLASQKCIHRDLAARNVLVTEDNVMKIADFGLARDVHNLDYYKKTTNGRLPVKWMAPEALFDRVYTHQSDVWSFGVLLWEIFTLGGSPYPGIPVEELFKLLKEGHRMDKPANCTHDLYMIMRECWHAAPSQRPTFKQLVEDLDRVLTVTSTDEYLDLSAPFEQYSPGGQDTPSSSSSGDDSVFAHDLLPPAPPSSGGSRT
Excerpt: as §1, §2

In experiment [1] the test system is breast cancer cell line BT474. Description: Combination therapy MTT assay. Type of experiment: cell-based, human. The settings on record: BT474, combined with aromatase inhibitors Anatrozole and Letrozole, 72 h. As to the method:
(§3) Compound A-Xln combination therapy MTT assay results were investigated. 100 μl of cell suspension with a concentration of 5×10^4 cells/ml was added to each well of a 96-well plate, and place in a 37° C., 5% CO2 incubator. After 24 h, Compound A-Xln sample solution was added according to Table 13, 10 μl/well for double-duplicate wells. After 72 hours at 37° C. and 5% CO2 incubation, 20 μl of 5 mg/ml MTT solution was added to each well, then 100 µl/well of dissolving solution was added after 4 hours. The samples were put in an incubator, and a full-wavelength multifunctional enzyme label machine was used after dissolving. The OD value at 570 nm was measured.

Experiment [2] has as its system breast cancer cell line MCF7. The experiment is described as follows: Combination therapy MTT assay. Type of experiment: cell-based, human. As to conditions: MCF7, combined with aromatase inhibitors Anatrozole and Letrozole, 72 h. The protocol:
as §3

The next experiment relates to renal 786-O. The experiment is described as follows: In vivo xenograft model. Also noted: species or system nude mouse. The settings on record: 786-O xenograft, oral daily 14-21 days, tumor weight vs control. As to the method:
(§4) Animal antitumor activity in vivo xenograft models with various tumor cell lines (SCLC NCI-H1436, NSCLC 95-D, ovarian SKVO3, renal 786-O, liver Bel-7420, brain U87) were performed as follows: The well grown tumor tissues of tumor cell lines were cut into 3 mm pieces, and each nude mouse was subcutaneously inoculated with one piece into the right flank. The animals were grouped and administered at pre-designed dosing. Treatments were initiated when the tumor size reached above 100 mm^3 after 10-14 days. According to the size of tumor, the animals with oversize or undersize tumors were eliminated, and the animals were grouped with similar average tumor volume. Then the animals were orally administrated daily for continuous 14-21 days. The large diameter a (mm) and the small diameter b (mm) were measured with caliper twice a week after inoculation for 13 days. Each tumor volume was calculated by formular: TV=ab^2/2 and the relative tumor volume was calculated as: RTV=Vt/Vo, Vo represents the tumor volume on the first day of treatment; Vt represents the tumor volume on each measurement day. The animals were executed and tumors were extracted by dissection 20-30 days after inoculation. The individual body weight and tumor weight were determined and calculated. Tumor Inhibit percentage was calculated as [1−((TWt)/(TWc)×100%, where TWt represents mean tumor weight of a treated group on the last day during the experiment, TWc represents mean tumor weight of the control group on the last day during the experiment. Experimental dosing and efficacy results are shown in FIGS. 19-24 of Drawing. The best tumor inhibition percentage ranges are >70% to 100%.

The test system of another experiment is ovarian SKVO3. The experiment is described as follows: In vivo xenograft model. Set-up: species or system nude mouse. The settings on record: oral daily 14-21 days, tumor weight vs control. The protocol:
as §4

The test system of a further experiment is NSCLC 95-D. The experiment is described as follows: In vivo xenograft model. Also noted: species or system nude mouse. As to conditions: 95-D xenograft, oral daily 14-21 days, tumor weight vs control. The protocol:
as §4

A further experiment has as its system liver Bel-7420. The experiment is described as follows: In vivo xenograft model. Also noted: species or system nude mouse. The settings on record: Bel-7420 xenograft, oral daily 14-21 days, tumor weight vs control. As to the method: as §4
The test system of another experiment is brain U87. Description: In vivo xenograft model. Set-up: species or system nude mouse. As to conditions: oral daily 14-21 days, tumor weight vs control. As to the method:
as §4

The next experiment deals with SCLC NCI-H1436. The experiment is described as follows: In vivo xenograft model. Set-up: species or system nude mouse. The settings on record: oral daily 14-21 days, tumor weight vs control. As to the method:
as §4

A further experiment concerns HepG2. The experiment is described as follows: In vitro MTT (proliferation) assay. Type of experiment: cell-based. The settings on record: Homo sapiens, Liver.
The test system of a further experiment is Molt-4. Description: In vitro MTT (proliferation) assay. Type of experiment: cell-based. As to conditions: Homo sapiens, Blood.

Sequence of Flt1(h) (VEGFr1) (P17948 27-1338): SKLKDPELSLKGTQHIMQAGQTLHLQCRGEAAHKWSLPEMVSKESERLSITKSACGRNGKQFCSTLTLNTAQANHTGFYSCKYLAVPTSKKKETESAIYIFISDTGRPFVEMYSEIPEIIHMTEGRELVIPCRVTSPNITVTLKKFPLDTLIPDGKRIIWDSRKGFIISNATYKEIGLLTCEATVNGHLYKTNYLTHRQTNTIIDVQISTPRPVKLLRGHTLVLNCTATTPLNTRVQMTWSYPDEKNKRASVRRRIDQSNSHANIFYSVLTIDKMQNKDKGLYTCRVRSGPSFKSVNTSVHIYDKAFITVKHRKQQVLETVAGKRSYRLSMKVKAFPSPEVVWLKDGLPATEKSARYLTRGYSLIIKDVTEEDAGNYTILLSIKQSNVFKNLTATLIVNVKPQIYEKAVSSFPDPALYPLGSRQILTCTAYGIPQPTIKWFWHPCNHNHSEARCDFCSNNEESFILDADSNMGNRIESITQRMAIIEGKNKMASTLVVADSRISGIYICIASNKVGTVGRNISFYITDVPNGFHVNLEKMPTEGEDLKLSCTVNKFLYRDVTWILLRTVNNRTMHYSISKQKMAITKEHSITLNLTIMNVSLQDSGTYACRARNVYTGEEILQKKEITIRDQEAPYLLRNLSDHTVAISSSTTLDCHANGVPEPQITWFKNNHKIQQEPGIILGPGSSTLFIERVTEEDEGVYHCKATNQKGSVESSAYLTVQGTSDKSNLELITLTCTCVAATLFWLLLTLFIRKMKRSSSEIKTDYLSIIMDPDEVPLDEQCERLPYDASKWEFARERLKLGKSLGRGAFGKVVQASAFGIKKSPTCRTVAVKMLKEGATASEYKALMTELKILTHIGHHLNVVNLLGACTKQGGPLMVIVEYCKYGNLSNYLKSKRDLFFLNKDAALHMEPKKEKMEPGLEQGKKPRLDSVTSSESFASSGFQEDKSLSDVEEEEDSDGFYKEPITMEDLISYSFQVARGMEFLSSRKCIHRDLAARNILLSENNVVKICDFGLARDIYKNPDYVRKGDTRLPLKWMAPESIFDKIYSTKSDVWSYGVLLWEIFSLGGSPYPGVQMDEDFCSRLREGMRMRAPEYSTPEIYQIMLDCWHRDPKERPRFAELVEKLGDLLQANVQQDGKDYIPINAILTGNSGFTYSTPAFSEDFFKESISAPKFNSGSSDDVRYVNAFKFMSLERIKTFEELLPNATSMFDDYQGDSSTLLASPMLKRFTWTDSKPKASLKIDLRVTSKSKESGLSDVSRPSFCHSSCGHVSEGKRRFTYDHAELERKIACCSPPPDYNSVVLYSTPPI
Sequence of FGFR1(h) (P11362 22-822): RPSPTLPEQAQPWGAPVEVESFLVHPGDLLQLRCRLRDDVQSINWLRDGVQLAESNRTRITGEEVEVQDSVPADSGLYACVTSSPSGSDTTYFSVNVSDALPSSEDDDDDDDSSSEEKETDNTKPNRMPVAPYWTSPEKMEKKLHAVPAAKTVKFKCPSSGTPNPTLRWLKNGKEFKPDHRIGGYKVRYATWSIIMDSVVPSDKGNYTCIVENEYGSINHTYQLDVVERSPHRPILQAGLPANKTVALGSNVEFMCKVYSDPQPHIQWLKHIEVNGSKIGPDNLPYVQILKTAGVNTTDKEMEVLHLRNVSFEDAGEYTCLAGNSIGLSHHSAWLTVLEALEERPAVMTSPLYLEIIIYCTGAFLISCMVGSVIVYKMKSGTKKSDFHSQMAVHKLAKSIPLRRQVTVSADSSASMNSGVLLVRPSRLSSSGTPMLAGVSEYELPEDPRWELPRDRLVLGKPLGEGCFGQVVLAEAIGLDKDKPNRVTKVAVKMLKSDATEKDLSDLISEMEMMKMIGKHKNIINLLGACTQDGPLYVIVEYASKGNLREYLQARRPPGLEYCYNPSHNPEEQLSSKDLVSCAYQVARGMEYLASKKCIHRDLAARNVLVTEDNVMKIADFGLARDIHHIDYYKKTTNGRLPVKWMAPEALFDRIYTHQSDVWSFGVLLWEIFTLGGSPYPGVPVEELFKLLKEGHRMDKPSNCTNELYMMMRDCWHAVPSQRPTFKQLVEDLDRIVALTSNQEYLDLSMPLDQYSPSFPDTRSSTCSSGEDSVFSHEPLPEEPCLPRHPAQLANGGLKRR
Sequence of Aurora-B (Q96GD4 whole entry): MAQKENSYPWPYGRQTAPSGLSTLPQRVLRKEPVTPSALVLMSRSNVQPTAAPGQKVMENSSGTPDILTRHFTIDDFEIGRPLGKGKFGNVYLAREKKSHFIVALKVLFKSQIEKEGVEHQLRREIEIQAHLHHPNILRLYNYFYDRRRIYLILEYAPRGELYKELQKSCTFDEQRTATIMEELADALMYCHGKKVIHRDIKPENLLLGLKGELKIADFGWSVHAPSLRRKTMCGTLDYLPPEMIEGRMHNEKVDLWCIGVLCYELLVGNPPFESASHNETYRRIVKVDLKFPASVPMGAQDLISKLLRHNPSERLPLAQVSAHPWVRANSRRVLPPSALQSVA

Take `COc1cc2c(Oc3ccc4[nH]c(C)cc4c3F)ccnc2cc1OCCN1CC(O)C2(CC2)C1` (centres unmarked) [Compound A-Xln, 5-(2-(4-(4-fluoro-2-methyl-1H-indol-5-yloxy)-6-methoxyquinolin-7-yloxy)ethyl)-5-azaspiro[2.4]-heptan-7-ol]: the IC50 amounted to 4920 ± 2260 nM with 95-D; 47 nM on Aurora-B; 4 nM against FGFR1(h); 8 nM at FGFR2(h); 2 nM against Flt4(h) (VEGFr3); 4 nM against Flt1(h) (VEGFr1). In addition, the IC50 against FGFR3(h) turned out to be 6 nM; in the experiment on HepG2 it was 9120 ± 3060 nM; in the experiment on Molt-4 it was 5530 ± 2780 nM. Besides, the “Proliferation inhibition in combination” value in [1] and in experiment [2] was “increased” each time. For the same molecule, the “best tumor inhibition percentage” value in the experiment with renal 786-O, in the experiment with ovarian SKVO3, with NSCLC 95-D, in the experiment with liver Bel-7420, with brain U87 and with SCLC NCI-H1436 was greater than 70% in each case.
